Tests used:
[1] = tested on: clarithromycin-resistant strain; test: MIC of clarithromycin for the clarithromycin-resistant strain; assay type: cell-based; conditions: Helicobacter pylori
[2] = tested on: Clarithromycin-resistant Helicobacter pylori bacteria; test: in vitro eradication activity on resistant strain, disk on medium; assay type: cell-based; conditions: twice repeated tests
From the text: Clarithromycin-resistant Helicobacter pylori bacteria were applied on a medium (red), and a sample was made in the form of a disk and placed on the medium to measure an eradicating effect. At this time, if the red color disappeared around the disk, it means that there was the eradicating effect.

[3] = tested on: H. pylori, 187 culture-positive clinical strains; test: antibiotic resistant rate from in vitro MIC on clinical strains; assay type: cell-based, Helicobacter pylori; conditions: based on MIC 1 μg/mL
Protocol: In virto MIC for non-absorbable antibiotic candidates (gentamicin, netilmicin, tobramycin, and amikacin) to be used as novel therapeutic agents was measured by making complexes with antibiotics (amoxicillin, clarithromycin, metronidazole, levofloxacin, and tetracyclin) that were actually used for Helicobacter eradicating treatment in clinical trials and smectite, and MIC50 and MIC90 were identified. For this end, 187 culture-positive clinical strains obtained from 1,265 patient specimens were used.

Row | Molecule | MIC [1] [µg/mL] | clear zone around disk (eradication activity) [2] | resistant rate of H. pylori [3] [%]
1 | CC[C@H]1OC(=O)[C@H](C)[C@@H](O[C@H]2C[C@@](C)(OC)[C@@H](O)[C@H](C)O2)[C@H](C)[C@@H](O[C@@H]2O[C@H](C)C[C@H](N(C)C)[C@H]2O)[C@](C)(OC)C[C@@H](C)C(=O)[C@H](C)[C@@H](O)[C@]1(C)O [clarithromycin] | 48 | no clear zone | –
2 | gentamicin | – | – | 2.78

— patent US11890295B2, “Helicobacter pylori eradication method including step for orally administering composition including complex of non-absorbable antibiotic and clay mineral to subject” (KOREA INSTITUTE OF GEOSCIENCE AND MINERAL RESOURCES, priority 2018, dated 2024)
